Measured values from the supplement of paper PMC10331698.
± gives the standard deviation of the averaged measurements.

What was measured:
Experiment in all cases: level (log10 ratio to DMSO vehicle control); higher = higher biomarker level / cell amount than vehicle control
Conditions in all cases: in DMSO
[1] = compound: O=C(O)C(F)(F)C(F)(F)C(F)(F)C(F)(F)C(F)(F)C(F)(F)C(F)(F)C(F)(F)C(F)(F)C(F)(F)C(F)(F)C(F)(F)F [Perfluorotridecanoic acid]
Experimental: (§1)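 BioMAP Diversity Plus panel of 12 human primary cell co-culture systems (3C, 4H, LPS, SAg, BT, BF4T, BE3C, CASM3C, HDF3CGF, KF3CT, MyoF, Mphg). Compounds were added 1 h before stimulation and left for 24 h (MyoF 48 h; BT 72 h for soluble read-outs or 6 d for IgG). Biomarkers were read by ELISA, cytotoxicity by SRB, PBMC viability and proliferation by Alamar Blue. Each well value was divided by the mean of 8 DMSO control wells on the same plate and log10 transformed; duplicate blinded samples were tested at 4 concentrations.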

[2] = compound: C=CC(=O)OCCC(F)(F)C(F)(F)C(F)(F)C(F)(F)F [2-(Perfluorobutyl)ethyl acrylate]
Experimental: as §1

[3] = compound: C=C(C)C(=O)OCC(F)(F)C(F)(F)C(F)(F)C(F)(F)C(F)(F)C(F)(F)C(F)(F)F
Experimental: as §1

Azathioprine = compound: Cn1cnc([N+](=O)[O-])c1Sc1ncnc2[nH]cnc12 [Azathioprine]
Experimental: as §1

[4] = compound: O=C(O)C(F)(F)C(F)(F)C(F)(F)C(F)(F)C(F)(F)C(F)(F)C(F)(F)C(F)(F)C(F)(F)C(F)(F)C(F)(F)C(F)(F)C(F)(F)F [Perfluorotetradecanoic acid]
Experimental: as §1

[5] = compound: O=C(O)CCC(F)(F)C(F)(F)C(F)(F)F [3:3 Fluorotelomer carboxylic acid]
Experimental: as §1

Row | Test System | level (log10) ([1]; 1500 nM) | level (log10) ([1]; 4400 nM) | level (log10) ([1]; 13000 nM) | level (log10) ([1]; 40000 nM) | level (log10) ([2]; 6700 nM) | level (log10) ([2]; 20000 nM) | level (log10) ([2]; 60000 nM) | level (log10) ([3]; 6700 nM) | level (log10) ([3]; 20000 nM) | level (log10) (Azathioprine; 1400 nM) | level (log10) (Azathioprine; 4200 nM) | level (log10) (Azathioprine; 13000 nM) | level (log10) (Azathioprine; 38000 nM) | level (log10) ([4]; 6700 nM) | level (log10) ([4]; 20000 nM) | level (log10) ([5]; 6700 nM) | level (log10) ([5]; 20000 nM) | level (log10) ([5]; 60000 nM)
1 | CASM3C:CD87/uPAR | 0.0185 ± 0.011 | 0.028 ± 0.0014 | -0.01 ± 0.013 | 0.0015 ± 0.019 | -0.006 ± 0.024 | -0.027 ± 0.018 | -0.023 ± 0.0042 | 0.0005 ± 0.0035 | 0.003 ± 0.023 | 0.0115 ± 0.0021 | 0.014 ± 0.0099 | -0.002 ± 0.067 | -0.0325 ± 0.0035 | -0.0305 ± 0.057 | -0.0375 ± 0.026 | -0.01 ± 0.0071 | 0.002 ± 0.011 | -0.01 ± 0.018
2 | CASM3C:CD106/VCAM-1 | -0.017 ± 0.05 | -0.0515 ± 0.015 | -0.167 ± 0.083 | -0.22 ± 0.054 | -0.0175 ± 0.023 | -0.0475 ± 0.0078 | -0.138 ± 0.016 | 0.011 ± 0.0014 | -0.0155 ± 0.046 | -0.0125 ± 0.022 | -0.0155 ± 0.0092 | -0.0485 ± 0.018 | -0.136 ± 0.023 | -0.023 ± 0.041 | -0.0065 ± 0.073 | -0.0255 ± 0.0035 | -0.03 ± 0.0057 | -0.0295 ± 0.015
3 | CASM3C:CD141/Thrombomodulin | 0.0215 ± 0.11 | -0.0185 ± 0.084 | 0.03 ± 0.062 | 0.193 ± 0.015 | 0.006 ± 0.018 | -0.0125 ± 0.0064 | 0.052 ± 0.0014 | 0.002 ± 0.048 | -0.0265 ± 0.035 | -0.004 ± 0.011 | -0.057 ± 0.035 | -0.043 ± 0.025 | -0.0405 ± 0.1 | 0.0555 ± 0.064 | 0.056 ± 0.044 | -0.0065 ± 0.005 | -0.0085 ± 0.011 | -0.0185 ± 0.0035
4 | CASM3C:CD142/Tissue Factor | -0.004 ± 0.064 | 0.002 ± 0.024 | -0.0025 ± 0.018 | -0.012 ± 0.034 | -0.027 ± 0.011 | -0.0455 ± 0.0092 | -0.0585 ± 0.0092 | 0.002 ± 0.0057 | -0.0195 ± 0.0021 | -0.0115 ± 0.015 | -0.026 ± 0.034 | -0.0345 ± 0.021 | -0.0295 ± 0.025 | -0.005 ± 0.038 | -0.002 ± 0.041 | 0.0015 ± 0.012 | -0.0015 ± 0.013 | -0.0305 ± 0.054
5 | CASM3C:CXCL8/IL-8 | 0.002 ± 0.037 | -0.003 ± 0.025 | -0.014 ± 0.037 | -0.0155 ± 0.0021 | -0.0045 ± 0.0064 | -0.009 ± 0.0014 | -0.028 ± 0.014 | -0.015 ± 0.018 | -0.001 ± 0.016 | -0.0095 ± 0.0064 | -0.023 ± 0.0085 | -0.023 ± 0.0057 | -0.009 ± 0.024 | 0.012 ± 0.016 | 0.016 ± 0.028 | -0.0025 ± 0.0021 | -0.008 ± 0.0014 | 0.0085 ± 0.022
6 | CASM3C:CXCL9/MIG | 0.013 ± 0.044 | -0.006 ± 0.017 | -0.054 ± 0.018 | -0.0405 ± 0.054 | -0.0005 ± 0.012 | -0.025 ± 0.0071 | -0.121 ± 0.014 | 0.0005 ± 0.011 | 0.014 ± 0.014 | 0.012 ± 0.033 | -0.0135 ± 0.005 | 0.008 ± 0.0057 | 0.0525 ± 0.042 | -0.0375 ± 0.042 | 0.0295 ± 0.057 | 0.004 ± 0.0028 | 0.008 ± 0.0099 | 0.002
7 | CASM3C:HLA-DR | 0.0015 ± 0.0092 | -0.0285 ± 0.035 | -0.0385 ± 0.013 | -0.085 ± 0.062 | -0.0245 ± 0.025 | -0.017 ± 0.014 | -0.0205 ± 0.011 | -0.015 ± 0.017 | -0.0125 ± 0.0021 | -0.0165 ± 0.0021 | -0.0115 ± 0.026 | -0.0405 ± 0.011 | -0.055 ± 0.031 | -0.0195 ± 0.0078 | -0.022 ± 0.073 | 0.007 ± 0.0085 | 0.006 ± 0.023 | -0.009 ± 0.028
8 | CASM3C:IL-6 | 0.005 ± 0.062 | -0.047 ± 0.0028 | -0.059 ± 0.028 | -0.0815 ± 0.08 | -0.023 ± 0.0014 | -0.0425 ± 0.0021 | -0.076 ± 0.034 | -0.0235 ± 0.0092 | 0.015 ± 0.013 | 0.011 ± 0.051 | -0.045 ± 0.0057 | -0.051 ± 0.0085 | -0.042 ± 0.072 | 0.002 ± 0.051 | 0.0135 ± 0.094 | -0.029 ± 0.016 | -0.0295 ± 0.015 | 0.0085 ± 0.018
9 | CASM3C:LDLR | -0.001 ± 0.013 | 0.013 ± 0.02 | 0.0105 ± 0.025 | -0.021 ± 0.0028 | -0.013 ± 0.0099 | -0.0105 ± 0.0021 | 0.01 ± 0.042 | -0.0135 ± 0.0021 | 0.03 ± 0.024 | -0.0055 ± 0.018 | -0.01 ± 0.0085 | -0.024 ± 0.023 | -0.034 ± 0.011 | -0.0135 ± 0.013 | -0.028 ± 0.014 | -0.0165 ± 0.00071 | -0.0105 ± 0.0035 | 0.011 ± 0.027
10 | CASM3C:M-CSF | 0.0075 ± 0.054 | 0.0255 ± 0.005 | 0.0565 ± 0.039 | 0.095 ± 0.0085 | -0.0165 ± 0.019 | -0.0355 ± 0.022 | -0.021 ± 0.044 | -0.0155 ± 0.0092 | 0.0165 ± 0.03 | 0.0065 ± 0.00071 | -0.0255 ± 0.018 | -0.0305 ± 0.0064 | -0.007 ± 0.038 | 0.006 ± 0.025 | -0.0065 ± 0.043 | -0.0055 ± 0.037 | -0.02 ± 0.018 | 0.0185 ± 0.028
11 | CASM3C:PAI-I | 0.005 ± 0.0085 | 0 ± 0.011 | 0.0135 ± 0.013 | 0.01 ± 0.0057 | 0.0105 ± 0.021 | -0.0035 ± 0.011 | 0 ± 0.013 | -0.005 ± 0.0014 | -0.005 ± 0.0028 | -0.0045 ± 0.0021 | 0.007 ± 0.0057 | 0.007 ± 0.0014 | 0.01 ± 0.0042 | 0.007 ± 0.0028 | 0.013 ± 0.0014 | -0.002 ± 0.0057 | -0.0035 ± 0.00071 | 0.009 ± 0.0014
12 | CASM3C:Proliferation | 0.02 ± 0.016 | -0.0055 ± 0.036 | 0.0085 ± 0.026 | -0.013 ± 0.0014 | -0.0375 ± 0.06 | -0.0315 ± 0.069 | -0.123 ± 0.084 | 0.0065 ± 0.033 | -0.022 ± 0.018 | -0.0225 ± 0.037 | -0.0225 ± 0.005 | -0.0785 ± 0.012 | -0.147 ± 0.028 | 0.0075 ± 0.028 | -0.018 ± 0.0057 | -0.01 ± 0.011 | 0.005 ± 0.0042 | 0.0005 ± 0.022
13 | CASM3C:SRB | 0.0075 ± 0.016 | 0.005 ± 0.0042 | -0.002 ± 0.0014 | -0.0065 ± 0.00071 | 0.0015 ± 0.0021 | 0.0055 ± 0.005 | 0.0005 ± 0.00071 | -0.0005 ± 0.00071 | 0 ± 0.0071 | 0.0015 ± 0.0092 | 0.003 ± 0.0057 | -0.013 ± 0.0014 | -0.0365 ± 0.0078 | -0.011 ± 0.0028 | 0.0025 ± 0.0092 | 0.005 ± 0.016 | 0.002 ± 0.014 | -0.0055 ± 0.011
14 | CASM3C:Serum Amyloid A | 0.0495 ± 0.086 | 0.074 ± 0.052 | 0.181 ± 0.075 | 0.157 ± 0.11 | -0.007 | -0.0175 ± 0.016 | -0.0305 ± 0.08 | -0.014 ± 0.0028 | -0.009 ± 0.0042 | 0.033 ± 0.021 | -0.0125 ± 0.0021 | -0.031 ± 0.0085 | -0.0485 ± 0.066 | 0.033 ± 0.048 | -0.007 ± 0.014 | -0.0055 ± 0.029 | -0.004 ± 0.0042 | -0.0005 ± 0.032
